#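 Cultured in 96-well plates, cells were exposed to test compound for 48 hours across five concentrations. TGI: concentration producing complete growth inhibition.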
# Columns and labels:
# Assay in all cases: NCI tumour cell line growth inhibition, 48 h
# SK-OV-3 ovarian = tested on: SK-OV-3 ovarian
# HCT-116 colon = tested on: HCT-116 colon
# M14 melanoma = tested on: M14 melanoma
# KM12 colon = tested on: KM12 colon
# OVCAR-5 ovarian = tested on: OVCAR-5 ovarian
# SF-539 CNS = tested on: SF-539 CNS
# K-562 leukemia = tested on: K-562 leukemia
# HCT-15 colon = tested on: HCT-15 colon
# MDA-MB-435 = tested on: MDA-MB-435
# SNB-19 CNS = tested on: SNB-19 CNS
# SR leukemia = tested on: SR leukemia
# OVCAR-8 ovarian = tested on: OVCAR-8 ovarian
# NCI/ADR-RES ovarian = tested on: NCI/ADR-RES ovarian
# SK-MEL-28 melanoma = tested on: SK-MEL-28 melanoma
# MOLT-4 leukemia = tested on: MOLT-4 leukemia
# UACC-257 melanoma = tested on: UACC-257 melanoma
# BT-549 breast = tested on: BT-549 breast
# NCI-H226 lung = tested on: NCI-H226 lung
# MDA-N = tested on: MDA-N
# UACC-62 melanoma = tested on: UACC-62 melanoma
# PC-3 prostate = tested on: PC-3 prostate
# RPMI-8226 leukemia = tested on: RPMI-8226 leukemia
# EKVX NSCLC = tested on: EKVX NSCLC
# A549 NSCLC = tested on: A549 NSCLC
# HCC-2998 colon = tested on: HCC-2998 colon
# ACHN renal = tested on: ACHN renal
# HS 578T breast = tested on: HS 578T breast
# A498 renal = tested on: A498 renal
# COLO 205 colon = tested on: COLO 205 colon
# SF-295 CNS = tested on: SF-295 CNS
# NCI-H460 lung = tested on: NCI-H460 lung
# U251 CNS = tested on: U251 CNS
# NCI-H522 lung = tested on: NCI-H522 lung
# NCI-H23 lung = tested on: NCI-H23 lung
# OVCAR-3 ovarian = tested on: OVCAR-3 ovarian
# CCRF-CEM leukemia = tested on: CCRF-CEM leukemia
# SK-MEL-2 melanoma = tested on: SK-MEL-2 melanoma
# HOP-62 NSCLC = tested on: HOP-62 NSCLC
# LOX IMVI melanoma = tested on: LOX IMVI melanoma
# SNB-75 CNS = tested on: SNB-75 CNS
# 786-0 renal = tested on: 786-0 renal
# SK-MEL-5 melanoma = tested on: SK-MEL-5 melanoma
# MCF7 breast = tested on: MCF7 breast
# IGROV1 ovarian = tested on: IGROV1 ovarian
# MDA-MB-231 breast = tested on: MDA-MB-231 breast
# SW-620 colon = tested on: SW-620 colon
# CAKI-1 renal = tested on: CAKI-1 renal
# TK-10 renal = tested on: TK-10 renal
# RXF 393 renal = tested on: RXF 393 renal
# HOP-92 NSCLC = tested on: HOP-92 NSCLC
# SF-268 CNS = tested on: SF-268 CNS
# HT29 colon = tested on: HT29 colon
# HL-60(TB) leukemia = tested on: HL-60(TB) leukemia
# DU-145 prostate = tested on: DU-145 prostate
# OVCAR-4 ovarian = tested on: OVCAR-4 ovarian
# UO-31 renal = tested on: UO-31 renal
# T-47D breast = tested on: T-47D breast
# SN12C renal = tested on: SN12C renal
smiles,measurement,setting,value
O=C1C=CC(O)(C#CCO)C=C1,TGI,SK-OV-3 ovarian,> 100 µM
same,TGI,HCT-116 colon,> 53.9 µM
same,TGI,M14 melanoma,44 µM
same,TGI,KM12 colon,32.6 µM
same,TGI,OVCAR-5 ovarian,26.9 µM
same,TGI,SF-539 CNS,30.8 µM
same,TGI,K-562 leukemia,> 100 µM
same,TGI,HCT-15 colon,10.1 µM
same,TGI,MDA-MB-435,26.9 µM
same,TGI,SNB-19 CNS,> 56.8 µM
same,TGI,SR leukemia,> 100 µM
same,TGI,OVCAR-8 ovarian,39.7 µM
same,TGI,NCI/ADR-RES ovarian,30.3 µM
same,TGI,SK-MEL-28 melanoma,25.5 µM
same,TGI,MOLT-4 leukemia,> 100 µM
same,TGI,UACC-257 melanoma,27.7 µM
same,TGI,BT-549 breast,26.7 µM
same,TGI,NCI-H226 lung,28.1 µM
same,TGI,MDA-N,23 µM
same,TGI,UACC-62 melanoma,29.3 µM
same,TGI,PC-3 prostate,31.8 µM
same,TGI,RPMI-8226 leukemia,22 µM
same,TGI,EKVX NSCLC,40.3 µM
same,TGI,A549 NSCLC,> 60.2 µM
same,TGI,HCC-2998 colon,31.3 µM
same,TGI,ACHN renal,26.6 µM
same,TGI,HS 578T breast,> 76.5 µM
same,TGI,A498 renal,46 µM
same,TGI,COLO 205 colon,> 50.2 µM
same,TGI,SF-295 CNS,> 100 µM
same,TGI,NCI-H460 lung,48.8 µM
same,TGI,U251 CNS,23.8 µM
same,TGI,NCI-H522 lung,4.16 µM
same,TGI,NCI-H23 lung,34.5 µM
same,TGI,OVCAR-3 ovarian,31 µM
same,TGI,CCRF-CEM leukemia,62.2 µM
same,TGI,SK-MEL-2 melanoma,33.2 µM
same,TGI,HOP-62 NSCLC,71.7 µM
same,TGI,LOX IMVI melanoma,23.3 µM
same,TGI,SNB-75 CNS,37.4 µM
same,TGI,786-0 renal,> 42 µM
same,TGI,SK-MEL-5 melanoma,> 100 µM
same,TGI,MCF7 breast,18.5 µM
same,TGI,IGROV1 ovarian,25.6 µM
same,TGI,MDA-MB-231 breast,33.7 µM
same,TGI,SW-620 colon,15.3 µM
same,TGI,CAKI-1 renal,10.8 µM
same,TGI,TK-10 renal,25.8 µM
same,TGI,RXF 393 renal,10.8 µM
same,TGI,HOP-92 NSCLC,5.8 µM
same,TGI,SF-268 CNS,34.1 µM
same,TGI,HT29 colon,29.7 µM
same,TGI,HL-60(TB) leukemia,15.8 µM
same,TGI,DU-145 prostate,31.6 µM
same,TGI,OVCAR-4 ovarian,25.9 µM
same,TGI,UO-31 renal,32.3 µM
same,TGI,T-47D breast,41.6 µM
same,TGI,SN12C renal,30.6 µM
COc1nc(-c2c[nH]c3ccccc23)cnc1N,TGI,SK-OV-3 ovarian,> 100 µM
same,TGI,HCT-116 colon,55.7 µM
same,TGI,M14 melanoma,94.8 µM
same,TGI,KM12 colon,> 100 µM
same,TGI,OVCAR-5 ovarian,> 100 µM
same,TGI,SF-539 CNS,> 100 µM
same,TGI,K-562 leukemia,> 100 µM
same,TGI,HCT-15 colon,> 100 µM
same,TGI,MDA-MB-435,> 100 µM
same,TGI,SNB-19 CNS,> 100 µM
same,TGI,SR leukemia,41.1 µM
same,TGI,OVCAR-8 ovarian,> 100 µM
same,TGI,NCI/ADR-RES ovarian,> 100 µM
same,TGI,SK-MEL-28 melanoma,64.6 µM
same,TGI,MOLT-4 leukemia,54.9 µM
same,TGI,UACC-257 melanoma,51.7 µM
same,TGI,BT-549 breast,> 100 µM
same,TGI,MDA-N,48.9 µM
same,TGI,UACC-62 melanoma,33.1 µM
same,TGI,PC-3 prostate,> 100 µM
same,TGI,RPMI-8226 leukemia,39.6 µM
same,TGI,EKVX NSCLC,61.5 µM
same,TGI,A549 NSCLC,> 100 µM
same,TGI,HCC-2998 colon,> 100 µM
same,TGI,ACHN renal,> 100 µM
same,TGI,HS 578T breast,54.2 µM
same,TGI,A498 renal,38.5 µM
same,TGI,COLO 205 colon,> 100 µM
same,TGI,SF-295 CNS,> 100 µM
same,TGI,NCI-H460 lung,> 100 µM
same,TGI,U251 CNS,> 100 µM
same,TGI,OVCAR-3 ovarian,> 100 µM
same,TGI,CCRF-CEM leukemia,14.8 µM
same,TGI,SK-MEL-2 melanoma,81.6 µM
same,TGI,HOP-62 NSCLC,> 100 µM
same,TGI,LOX IMVI melanoma,> 100 µM
same,TGI,786-0 renal,36.4 µM
same,TGI,SK-MEL-5 melanoma,> 100 µM
same,TGI,MCF7 breast,84.1 µM
same,TGI,IGROV1 ovarian,> 100 µM
same,TGI,MDA-MB-231 breast,59.1 µM
same,TGI,SW-620 colon,> 100 µM
same,TGI,CAKI-1 renal,> 100 µM
same,TGI,TK-10 renal,> 100 µM
same,TGI,HOP-92 NSCLC,23.9 µM
same,TGI,SF-268 CNS,> 100 µM
same,TGI,HT29 colon,46.2 µM
same,TGI,HL-60(TB) leukemia,31.5 µM
same,TGI,DU-145 prostate,70.1 µM
same,TGI,OVCAR-4 ovarian,> 100 µM
same,TGI,UO-31 renal,> 100 µM
same,TGI,T-47D breast,82.8 µM
same,TGI,SN12C renal,43.5 µM
Cn1c(=O)c2c(nc3n(Cc4ccccc4)c(=O)c(Br)cn23)n(C)c1=O,TGI,HCT-116 colon,> 100 µM
same,TGI,M14 melanoma,> 100 µM
same,TGI,KM12 colon,> 100 µM
same,TGI,OVCAR-5 ovarian,> 100 µM
same,TGI,SF-539 CNS,> 100 µM
same,TGI,K-562 leukemia,> 100 µM
same,TGI,HCT-15 colon,> 100 µM
same,TGI,MDA-MB-435,> 100 µM
same,TGI,SNB-19 CNS,> 100 µM
same,TGI,SR leukemia,> 100 µM
same,TGI,OVCAR-8 ovarian,> 100 µM
same,TGI,NCI/ADR-RES ovarian,> 100 µM
same,TGI,SK-MEL-28 melanoma,> 100 µM
same,TGI,MOLT-4 leukemia,> 100 µM
same,TGI,UACC-257 melanoma,> 100 µM
same,TGI,BT-549 breast,> 100 µM
same,TGI,NCI-H226 lung,> 100 µM
same,TGI,MDA-N,> 100 µM
same,TGI,UACC-62 melanoma,> 100 µM
same,TGI,PC-3 prostate,> 100 µM
same,TGI,RPMI-8226 leukemia,> 100 µM
same,TGI,EKVX NSCLC,> 100 µM
same,TGI,A549 NSCLC,> 100 µM
same,TGI,HCC-2998 colon,> 100 µM
same,TGI,ACHN renal,> 100 µM
same,TGI,HS 578T breast,> 100 µM
same,TGI,A498 renal,> 100 µM
same,TGI,COLO 205 colon,> 100 µM
same,TGI,SF-295 CNS,> 100 µM
same,TGI,NCI-H460 lung,> 100 µM
same,TGI,U251 CNS,> 100 µM
same,TGI,NCI-H522 lung,> 100 µM
same,TGI,NCI-H23 lung,> 100 µM
same,TGI,OVCAR-3 ovarian,> 100 µM
same,TGI,CCRF-CEM leukemia,> 100 µM
same,TGI,SK-MEL-2 melanoma,> 100 µM
same,TGI,HOP-62 NSCLC,> 100 µM
same,TGI,LOX IMVI melanoma,> 100 µM
same,TGI,SNB-75 CNS,> 100 µM
same,TGI,786-0 renal,> 100 µM
same,TGI,SK-MEL-5 melanoma,> 100 µM
same,TGI,MCF7 breast,> 100 µM
same,TGI,IGROV1 ovarian,> 100 µM
same,TGI,MDA-MB-231 breast,> 100 µM
same,TGI,SW-620 colon,> 100 µM
same,TGI,CAKI-1 renal,> 100 µM
same,TGI,TK-10 renal,> 100 µM
same,TGI,RXF 393 renal,> 100 µM
same,TGI,HOP-92 NSCLC,> 100 µM
same,TGI,SF-268 CNS,> 100 µM
same,TGI,HT29 colon,> 100 µM
same,TGI,HL-60(TB) leukemia,> 100 µM
same,TGI,DU-145 prostate,> 100 µM
same,TGI,OVCAR-4 ovarian,> 100 µM
same,TGI,UO-31 renal,> 100 µM
same,TGI,T-47D breast,> 100 µM
same,TGI,SN12C renal,> 100 µM

# From PubChem BioAssay (NCI)
